# From patent US20220386606A1, “SPECIFICALLY SUBSTITUTED 3-PHENYL-5-SPIROCYCLOPENTYL-3-PYRROLIN-2-ONES AND THEIR USE AS HERBICIDES” (Bayer Aktiengesellschaft, priority 2019, published 2022)
# Experiments:
# [1] = tested on: SETVI; assay: Pre-emergence herbicidal action against SETVI; assay type: in vivo, Setaria viridis; details: 320 g/ha, scored visually after 3 weeks vs untreated controls
# In short: (§1)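 Visual scoring after 3 weeks in the greenhouse gives percent activity (100% = dead, 0% = like untreated). Compounds, formulated as WP or EC, were applied to the soil surface over freshly sown seeds in sandy loam, water rate 600 to 800 L/ha plus 0.2% wetting agent.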
# [2] = tested on: AVEFA; assay: Pre-emergence herbicidal action against AVEFA; assay type: in vivo, Avena fatua; details: 320 g/ha, scored visually after 3 weeks vs untreated controls
# In short: as §1
# [3] = tested on: ECHCG; assay: Post-emergence herbicidal action against ECHCG; assay type: in vivo, Echinochloa crus-galli; details: 80 g/ha, visual assessment about 3 weeks after treatment vs untreated controls
# In short: (§2)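 Greenhouse post-emergence test; one-leaf stage (2–3 wk post-sowing), sandy loam. Spray: WP/EC in water, 600–800 l/ha, 0.2% wetting agent, onto green parts. Visual rating ~3 wk later, % vs untreated (100% = dead, 0% = like control).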
# [4] = tested on: AMARE; assay: Pre-emergence herbicidal action against AMARE; assay type: in vivo, Amaranthus retroflexus; details: 320 g/ha
# In short: as §1
# [5] = tested on: DIGSA; assay: Post-emergence herbicidal action against DIGSA; assay type: in vivo, Digitaria sanguinalis; details: 80 g/ha, visual assessment about 3 weeks after treatment vs untreated controls
# In short: as §2
# [6] = tested on: LOLRI; assay: Pre-emergence herbicidal action against LOLRI (Table 8, titled post-emergence at 320 g/ha); assay type: in vivo, Lolium rigidum; details: table stands in the pre-emergence section
# In short: as §1
# [7] = tested on: SETVI; assay: Post-emergence herbicidal action against SETVI; assay type: in vivo, Setaria viridis; details: 80 g/ha, visual assessment about 3 weeks after treatment vs untreated controls
# In short: as §2
# [8] = tested on: LOLRI; assay: Post-emergence herbicidal action against LOLRI; assay type: in vivo, Lolium rigidum; details: 80 g/ha, visual assessment about 3 weeks after treatment vs untreated controls
# In short: as §2
# [9] = tested on: ECHCG; assay: Pre-emergence herbicidal action against ECHCG; assay type: in vivo, Echinochloa crus-galli; details: 320 g/ha, scored visually after 3 weeks vs untreated controls
# In short: as §1
# [10] = tested on: VIOTR; assay: Pre-emergence herbicidal action against VIOTR; assay type: in vivo, Viola tricolor; details: 320 g/ha
# In short: as §1
# [11] = tested on: POLCO; assay: Pre-emergence herbicidal action against POLCO; assay type: in vivo, Polygonum convolvulus; details: 320 g/ha
# Source text: Seeds of monocotyledonous and dicotyledonous weed plants and crop plants are laid out in sandy loam soil in wood-fiber pots and covered with soil. The compounds of the invention, formulated in the form of wettable powders (WP) or as emulsion concentrates (EC), are then applied to the surface of the covering soil as aqueous suspension or emulsion at a water application rate equating to 600 to 800 L/ha with addition of 0.2% wetting agent.
# After the treatment, the pots are placed in a greenhouse and kept under good growth conditions for the trial plants. The damage to the test plants is scored visually after a test period of 3 weeks by comparison with untreated controls (herbicidal activity in percent (%): 100% activity=the plants have died, 0% activity=like control plants).
# [12] = tested on: MATIN; assay: Pre-emergence herbicidal action against MATIN; assay type: in vivo; details: 320 g/ha
# In short: as §1
# [13] = tested on: ALOMY; assay: Pre-emergence herbicidal action against ALOMY; assay type: in vivo, Alopecurus myosuroides; details: 320 g/ha, scored visually after 3 weeks vs untreated controls
# In short: as §1
# [14] = tested on: DIGSA; assay: Pre-emergence herbicidal action against DIGSA; assay type: in vivo, Digitaria sanguinalis; details: 320 g/ha, scored visually after 3 weeks vs untreated controls
# In short: as §1
# [15] = tested on: ALOMY; assay: Post-emergence herbicidal action against ALOMY; assay type: in vivo, Alopecurus myosuroides; details: 80 g/ha, visual assessment after about 3 weeks
# In short: as §2
# [16] = tested on: VERPE; assay: Pre-emergence herbicidal action against VERPE; assay type: in vivo, Veronica persica; details: 320 g/ha
# In short: as §1
# [17] = tested on: AVEFA; assay: Post-emergence herbicidal action against AVEFA; assay type: in vivo, Avena fatua; details: 80 g/ha, visual assessment after about 3 weeks
# In short: as §2
compound,measurement,setting,value
C=CCOCC1CCC2(C1)NC(=O)C(c1c(C)cc(C#CC)cc1Cl)=C2O (centres unmarked) [Example I-46],Pre-emergence action against SETVI in %,[1],100%
same,Pre-emergence action against AVEFA in %,[2],90%
same,Post-emergence action against ECHCG in %,[3],100%
same,Pre-emergence action against AMARE in %,[4],100%
same,Post-emergence action against DIGSA in %,[5],90%
same,Pre-emergence herbicidal action against LOLRI in %,[6],100%
same,Post-emergence action against SETVI in %,[7],100%
same,Post-emergence action against LOLRI in %,[8],90%
same,Pre-emergence action against ECHCG in %,[9],100%
same,Pre-emergence action against VIOTR in %,[10],100%
same,Pre-emergence action against POLCO in %,[11],90%
same,Pre-emergence action against MATIN in %,[12],90%
same,Pre-emergence action against ALOMY in %,[13],100%
same,Pre-emergence action against DIGSA in %,[14],100%
CC#Cc1cc(C)c(C2=C(O)C3(CCC(COCCOC)C3)NC2=O)c(Cl)c1 (centres unmarked) [Example I-51],Pre-emergence action against SETVI in %,[1],100%
same,Pre-emergence action against AVEFA in %,[2],100%
same,Post-emergence action against ECHCG in %,[3],100%
same,Pre-emergence action against AMARE in %,[4],100%
same,Post-emergence action against DIGSA in %,[5],100%
same,Pre-emergence herbicidal action against LOLRI in %,[6],100%
same,Post-emergence action against ALOMY in %,[15],100%
same,Post-emergence action against SETVI in %,[7],100%
same,Pre-emergence action against VERPE in %,[16],100%
same,Post-emergence action against LOLRI in %,[8],90%
same,Pre-emergence action against ECHCG in %,[9],100%
same,Pre-emergence action against VIOTR in %,[10],100%
same,Pre-emergence action against POLCO in %,[11],80%
same,Pre-emergence action against MATIN in %,[12],100%
same,Post-emergence action against AVEFA in %,[17],100%
same,Pre-emergence action against ALOMY in %,[13],100%
same,Pre-emergence action against DIGSA in %,[14],100%
C=CCOCC1CCC2(C1)NC(=O)C(c1c(C)cc(C#CC)cc1Br)=C2O (centres unmarked) [Example I-70],Pre-emergence action against SETVI in %,[1],100%
same,Pre-emergence action against AVEFA in %,[2],100%
same,Post-emergence action against ECHCG in %,[3],100%
same,Post-emergence action against DIGSA in %,[5],90%
same,Pre-emergence herbicidal action against LOLRI in %,[6],100%
same,Post-emergence action against ALOMY in %,[15],90%
same,Post-emergence action against SETVI in %,[7],100%
same,Post-emergence action against LOLRI in %,[8],90%
same,Pre-emergence action against ECHCG in %,[9],100%
same,Pre-emergence action against VIOTR in %,[10],100%
same,Pre-emergence action against POLCO in %,[11],80%
same,Pre-emergence action against MATIN in %,[12],80%
same,Pre-emergence action against ALOMY in %,[13],100%
same,Pre-emergence action against DIGSA in %,[14],100%
CC#Cc1cc(C)c(C2=C(OC(=O)OCC)C3(CCC(COCCOC)C3)NC2=O)c(Cl)c1 (centres unmarked) [Example P-76],Pre-emergence action against SETVI in %,[1],100%
same,Pre-emergence action against AVEFA in %,[2],100%
same,Post-emergence action against ECHCG in %,[3],100%
same,Pre-emergence action against AMARE in %,[4],100%
same,Post-emergence action against DIGSA in %,[5],90%
same,Pre-emergence herbicidal action against LOLRI in %,[6],100%
same,Post-emergence action against ALOMY in %,[15],100%
same,Post-emergence action against SETVI in %,[7],100%
same,Pre-emergence action against VERPE in %,[16],100%
same,Post-emergence action against LOLRI in %,[8],100%
same,Pre-emergence action against ECHCG in %,[9],100%
same,Pre-emergence action against VIOTR in %,[10],100%
same,Pre-emergence action against POLCO in %,[11],100%
same,Post-emergence action against AVEFA in %,[17],90%
same,Pre-emergence action against ALOMY in %,[13],100%
same,Pre-emergence action against DIGSA in %,[14],100%
CC#Cc1cc(C)c(C2=C(OC(=O)OCC)C3(CCC(COCCC)C3)NC2=O)c(Cl)c1 (centres unmarked) [Example P-86],Pre-emergence action against SETVI in %,[1],100%
same,Pre-emergence action against AVEFA in %,[2],80%
same,Post-emergence action against ECHCG in %,[3],100%
same,Pre-emergence action against AMARE in %,[4],100%
same,Post-emergence action against DIGSA in %,[5],90%
same,Pre-emergence herbicidal action against LOLRI in %,[6],100%
same,Post-emergence action against ALOMY in %,[15],90%
same,Post-emergence action against SETVI in %,[7],100%
same,Pre-emergence action against VERPE in %,[16],100%
same,Post-emergence action against LOLRI in %,[8],100%
same,Pre-emergence action against ECHCG in %,[9],100%
same,Pre-emergence action against VIOTR in %,[10],100%
same,Pre-emergence action against POLCO in %,[11],90%
same,Pre-emergence action against MATIN in %,[12],80%
same,Pre-emergence action against ALOMY in %,[13],100%
same,Pre-emergence action against DIGSA in %,[14],100%
